Measured values: BigSolDB 2.1

CN(C)CCn1[nH]nnc1=S
Details | solubility (mole fraction)
in DMF, 293.45 K | 0.000803
in DMF, 298.34 K | 0.000875
in DMF, 303.35 K | 0.00105
in DMF, 308.38 K | 0.00122
in DMF, 313.25 K | 0.00146
in DMF, 318.22 K | 0.00179
in DMF, 323.2 K | 0.00212
in DMF, 328.12 K | 0.00253
in DMF, 333.3 K | 0.00297
in DMF, 338.22 K | 0.00335
in DMF, 345.15 K | 0.00393
in ethanol, 293.25 K | 5.34e-05
in ethanol, 298.15 K | 6.16e-05
in ethanol, 302.95 K | 7.31e-05
in ethanol, 308.1 K | 8.48e-05
in ethanol, 312.94 K | 9.91e-05
in ethanol, 318.15 K | 0.000118
in ethanol, 322.55 K | 0.000133
in ethanol, 327.45 K | 0.000156
in ethanol, 332.55 K | 0.000181
in ethanol, 338.05 K | 0.000206
in ethanol, 342.2 K | 0.000227
in isopropanol, 293.15 K | 3.47e-05
in isopropanol, 298.28 K | 4.15e-05
in isopropanol, 303.35 K | 4.8e-05
in isopropanol, 308.14 K | 5.43e-05
in isopropanol, 313.25 K | 6.15e-05
in isopropanol, 318.2 K | 6.96e-05
in isopropanol, 323.25 K | 7.96e-05
in isopropanol, 328.16 K | 9.09e-05
in isopropanol, 333.35 K | 0.000106
in isopropanol, 338.32 K | 0.000123
in isopropanol, 343.45 K | 0.000144
in methanol, 293.05 K | 0.000156
in methanol, 298.17 K | 0.000186
in methanol, 303.15 K | 0.000219
in methanol, 308.2 K | 0.000254
in methanol, 313.05 K | 0.000291
in methanol, 318.24 K | 0.000348
in methanol, 323.25 K | 0.000414
in methanol, 328.23 K | 0.000485
in methanol, 333.15 K | 0.000571
in n-butanol, 293.15 K | 6.11e-05
in n-butanol, 298.21 K | 6.93e-05
in n-butanol, 303.35 K | 7.66e-05
in n-butanol, 308.14 K | 8.49e-05
in n-butanol, 313.05 K | 9.47e-05
in n-butanol, 318.28 K | 0.000103
in n-butanol, 323 K | 0.000112
in n-butanol, 328.14 K | 0.000126
in n-butanol, 333.05 K | 0.000141
in n-butanol, 338.12 K | 0.000158
in n-butanol, 343.1 K | 0.000179
in n-propanol, 293.17 K | 5.79e-05
in n-propanol, 298.14 K | 7.34e-05
in n-propanol, 303.25 K | 8.52e-05
in n-propanol, 308.12 K | 0.000107
in n-propanol, 313.15 K | 0.000127
in n-propanol, 318.23 K | 0.00014
in n-propanol, 323.2 K | 0.000161
in n-propanol, 328.34 K | 0.000176
in n-propanol, 332.95 K | 0.000189
in n-propanol, 338.18 K | 0.000216
in n-propanol, 343.16 K | 0.000241
in sec-butanol, 293.35 K | 3.16e-05
in sec-butanol, 298.37 K | 3.49e-05
in sec-butanol, 303.25 K | 4.12e-05
in sec-butanol, 308.24 K | 4.36e-05
in sec-butanol, 313.15 K | 4.84e-05
in sec-butanol, 318.12 K | 6.19e-05
in sec-butanol, 323 K | 7.52e-05
in sec-butanol, 327.33 K | 9.18e-05
in sec-butanol, 330.85 K | 0.00011
in sec-butanol, 335.57 K | 0.000133
in sec-butanol, 340.5 K | 0.000165
in water, 293.15 K | 0.00421
in water, 298.12 K | 0.00516
in water, 303.15 K | 0.00636
in water, 308.22 K | 0.008
in water, 313.35 K | 0.0101
in water, 318.28 K | 0.0127
in water, 323.35 K | 0.0161
in water, 328.24 K | 0.0199
in water, 333.35 K | 0.0246
in water, 338.21 K | 0.0303
in water, 343.3 K | 0.0371
